US9232799B2, “N-[(het)arylethyl)] pyrazole(thio)carboxamides and their heterosubstituted analogues” (BAYER INTELLECTUAL PROPERTY GMBH, priority 2010, dated 2016)
Values joined by “and” are separate entries in the source; they are usually repeats but may differ in a detail not shown here. Equal values may be shown once.

Key:
Puccinia triticina = assay: In vivo preventive test on Puccinia triticina (wheat); details: evaluated 8 days after inoculation; for Efficacy: dose 500 ppm of active ingredient
aflatoxines production = assay: microbe, parasite or virus in culture; type: cell-based, Aspergillus parasiticus
Alternaria solani = assay: In vivo preventive test on Alternaria solani (tomato); details: 500 ppm of active ingredient, evaluated 7 days after inoculation
From the text: One day after this treatment, the plants are inoculated with an aqueous spore suspension of Alternaria solani.

Fusarium graminearum = assay: microbe, parasite or virus in culture; type: cell-based
Pyrenophora teres = assay: In vivo preventive test on Pyrenophora teres (barley); details: 500 ppm of active ingredient, evaluated 7-9 days after inoculation
From the text: One day after this treatment, the plants are inoculated with an aqueous spore suspension of Pyrenophora teres.

[1] = logP by HPLC on reversed-phase column (C 18), EEC Directive 79/831 Annex V.A8; type: physicochemical
Experimental: In table 1, the logP values were determined in accordance with EEC Directive 79/831 Annex V.A8 by HPLC (High Performance Liquid Chromatography) on a reversed-phase column (C 18), using the method described below: Temperature: 40° C.; […]

Sphaerotheca fuliginea = assay: In vivo preventive test on Sphaerotheca fuliginea (cucumber); details: 500 ppm of active ingredient, evaluated 7 days after inoculation
From the text: One day after this treatment, the plants are inoculated with an aqueous spore suspension of Sphaerotheca fuliginea.

[2] = test system: Blumeria graminis f.sp. hordei; assay: In vivo preventive test on Blumeria graminis (barley); details: 500 ppm of active ingredient, evaluated 7 days after inoculation
From the text: (§1) To test for preventive activity, young plants are sprayed with the preparation of active compound or active compound combination at the stated rate of application.

Septoria tritici = assay: In vivo preventive test on Septoria tritici (wheat); details: 500 ppm of active ingredient, evaluated 21 days after inoculation
From the text: as §1

Leptosphaeria nodorum = assay: In vivo preventive test on Leptosphaeria nodorum (wheat); details: 500 ppm of active ingredient, evaluated 7-9 days after inoculation
From the text: One day after this treatment, the plants are inoculated with an aqueous spore suspension of Leptosphaeria nodorum.

Venturia inaequalis = assay: In vivo preventive test on Venturia inaequalis (apple scab); details: 100 ppm of active ingredient, evaluated 10 days after inoculation
Botrytis cinerea = assay: In vivo preventive test on Botrytis cinerea (beans); details: preventive, beans, lesion size 2 days after inoculation; for pest or weed control at 500 ppm: Botrytis cinerea, 48 h, 500 ppm of active ingredient, read-out: Efficacy
From the text: To test for preventive activity, young plants are sprayed with the preparation of active compound. After the spray coating has dried on, 2 small pieces of agar covered with growth of Botrytis cinerea are placed on each leaf.

[3] = test system: Fusarium nivale (var. majus); assay: In vivo preventive test on Fusarium nivale (wheat); details: 500 ppm of active ingredient, evaluated 5 days after inoculation
From the text: as §1

Cn1cc(C(=O)N(C2CC2)C2CCCC2c2ccc(Cl)cc2Cl)c(C(F)F)n1 (centres unmarked) [7 from WO-2010/09466, N-cyclopropyl-N-[2-(2,4-dichlorophenyl)cyclopentyl]-3-(difluoromethyl)-1-methyl-1H-pyrazole-4-carboxamide, reference compound]
Efficacy (protection) (Puccinia triticina; preventive, 500 ppm of active ingredient): less than 5%

CN(CCc1ccc(F)cc1)C(=O)c1c(C(F)F)nn(C)c1Cl [Example 24]
% Inhibition of Aflatoxin at 50 μM (aflatoxines production): 100%
Efficacy (Alternaria solani): 100%
Efficacy (Puccinia triticina): 80%
% Inhibition of fungal growth at 50 μM (Fusarium graminearum): 88%
Efficacy (Pyrenophora teres): 95%
logP [1]: 2.66

CC(Cc1ccccc1Cl)NC(=O)c1c(C(F)F)nn(C)c1Cl (centres unmarked) [Example 33]
% Inhibition of Aflatoxin at 50 μM (aflatoxines production): 100%
Efficacy (Sphaerotheca fuliginea): 93%
Efficacy (Alternaria solani): 100%
Efficacy (Puccinia triticina): 80%
% Inhibition of fungal growth at 50 μM (Fusarium graminearum): 100%
Efficacy (Pyrenophora teres): 100%
logP [1]: 3.15

CC(c1ccccc1Cl)C(C)N(C(=O)c1c(C(F)F)nn(C)c1F)C1CC1 (centres unmarked) [Example 41]
Efficacy [2]: 100%
% Inhibition of Aflatoxin at 50 μM (aflatoxines production): 100%
Efficacy (Sphaerotheca fuliginea): 74%
Efficacy (Septoria tritici): 93%
Efficacy (Alternaria solani): 100%
Efficacy (Leptosphaeria nodorum): 95%
% Inhibition of fungal growth at 50 μM (Fusarium graminearum): 100%
Efficacy (Pyrenophora teres): 100%
logP [1]: 3.87

CC(Cc1ccc(Cl)cc1Cl)NC(=O)c1c(C(F)F)nn(C)c1F (centres unmarked) [Example 67]
% Inhibition of Aflatoxin at 50 μM (aflatoxines production): 100%
Efficacy (Sphaerotheca fuliginea): 100%
Efficacy (Alternaria solani): 100%
Efficacy (Venturia inaequalis): 100%
Efficacy (Leptosphaeria nodorum): 90%
% Inhibition of fungal growth at 50 μM (Fusarium graminearum): 100%
Efficacy (Pyrenophora teres): 100%
Efficacy (Botrytis cinerea; 100 ppm of active ingredient): 89%
logP [1]: 3.46

Cn1nc(C(F)F)c(C(=O)NCC(C)(C)c2ccc(Cl)cc2Cl)c1Cl [Example 88]
Efficacy [2]: 80%
% Inhibition of Aflatoxin at 50 μM (aflatoxines production): 100%
Efficacy (Sphaerotheca fuliginea): 94%
Efficacy (Septoria tritici): 90%
Efficacy (Alternaria solani): 100%
Efficacy [3]: 88%
Efficacy (Leptosphaeria nodorum): 90%
% Inhibition of fungal growth at 50 μM (Fusarium graminearum): 86%
Efficacy (Pyrenophora teres): 100%
logP [1]: 4.03

CC(Cc1cc(Cl)ccc1Cl)NC(=O)c1c(C(F)F)nn(C)c1Cl (centres unmarked) [Example 93]
% Inhibition of Aflatoxin at 50 μM (aflatoxines production): 100%
Efficacy (Sphaerotheca fuliginea): 95%
Efficacy (Alternaria solani): 100%
Efficacy (Puccinia triticina): 70%
% Inhibition of fungal growth at 50 μM (Fusarium graminearum): 100%
Efficacy (Pyrenophora teres): 100%
logP [1]: 3.53

CN(CCc1cc(Cl)ccc1Cl)C(=O)c1c(C(F)F)nn(C)c1Cl [Example 95]
% Inhibition of Aflatoxin at 50 μM (aflatoxines production): 100%
Efficacy (Alternaria solani): 100%
Efficacy (Puccinia triticina): 70%
% Inhibition of fungal growth at 50 μM (Fusarium graminearum): 100%
Efficacy (Pyrenophora teres): 100%
logP [1]: 3.33

Cn1nc(C(F)F)c(C(=O)N(CC(F)(F)c2cc(Cl)ccc2Cl)C2CC2)c1F [Example 99]
Efficacy [2]: 89%
Efficacy (Sphaerotheca fuliginea): 98%
Efficacy (Septoria tritici): 100%
Efficacy (Alternaria solani): 95%
Efficacy [3]: 92%
Efficacy (Leptosphaeria nodorum): 95%
Efficacy (Pyrenophora teres): 100%
logP [1]: 3.85

CC(Cc1cc(Cl)cc(Cl)c1)NC(=O)c1c(C(F)F)nn(C)c1F (centres unmarked) [Example 102]
% Inhibition of Aflatoxin at 50 μM (aflatoxines production): 100%
Efficacy (Alternaria solani): 95%
Efficacy (Puccinia triticina): 70%
% Inhibition of fungal growth at 50 μM (Fusarium graminearum): 100%
Efficacy (Pyrenophora teres): 100%
logP [1]: 3.48

CC(Cc1cc(Cl)cc(Cl)c1)NC(=O)c1c(C(F)F)nn(C)c1Cl (centres unmarked) [Example 104]
% Inhibition of Aflatoxin at 50 μM (aflatoxines production): 100%
Efficacy (Sphaerotheca fuliginea): 86%
Efficacy (Alternaria solani): 95%
Efficacy (Puccinia triticina): 70%
% Inhibition of fungal growth at 50 μM (Fusarium graminearum): 98%
Efficacy (Pyrenophora teres): 100%
logP [1]: 3.67

CC(Cc1c(F)cccc1Cl)N(C(=O)c1c(C(F)F)nn(C)c1Cl)C1CC1 (centres unmarked) [Example 119]
% Inhibition of Aflatoxin at 50 μM (aflatoxines production): 95%
Efficacy (Alternaria solani): 100%
Efficacy (Puccinia triticina): 80%
% Inhibition of fungal growth at 50 μM (Fusarium graminearum): 79%
Efficacy (Pyrenophora teres): 100%
logP [1]: 3.94

CC(Cc1cccc(Oc2ccccc2)c1)NC(=O)c1c(C(F)F)nn(C)c1Cl (centres unmarked) [Example 147]
% Inhibition of Aflatoxin at 50 μM (aflatoxines production): 93%
Efficacy (Alternaria solani): 100%
Efficacy (Puccinia triticina): 70%
% Inhibition of fungal growth at 50 μM (Fusarium graminearum): 77%
Efficacy (Pyrenophora teres): 100%
logP [1]: 3.80

CC(Cc1ccc(Oc2ccccc2)cc1)NC(=O)c1c(C(F)F)nn(C)c1F (centres unmarked) [Example 151]
Efficacy [2]: 100%
% Inhibition of Aflatoxin at 50 μM (aflatoxines production): 100%
Efficacy (Sphaerotheca fuliginea): 93%
Efficacy (Septoria tritici): 100%
Efficacy (Alternaria solani): 95%
Efficacy [3]: 100%
Efficacy (Leptosphaeria nodorum): 70%
% Inhibition of fungal growth at 50 μM (Fusarium graminearum): 94%
Efficacy (Pyrenophora teres): 100%
logP [1]: 3.63

CC(Cc1ncc(C(F)(F)F)cc1Cl)N(C(=O)c1c(C(F)F)nn(C)c1Cl)C1CC1 (centres unmarked) [Example 189]
Efficacy [2]: 100%
% Inhibition of Aflatoxin at 50 μM (aflatoxines production): 100%
Efficacy (Sphaerotheca fuliginea): 95%
Efficacy (Septoria tritici): 70%
Efficacy (Alternaria solani): 100%
Efficacy (Puccinia triticina): 80%
Efficacy [3]: 100%
% Inhibition of fungal growth at 50 μM (Fusarium graminearum): 90%
Efficacy (Pyrenophora teres): 95%
logP [1]: 3.96

Cn1nc(C(F)F)c(C(=O)NC(C)(C)C(=O)c2ncc(C(F)(F)F)cc2Cl)c1F [Example 194, N-{1-[3-chloro-5-(trifluoromethyl)pyridin-2-yl]-2-methyl-1-oxopropan-2-yl}-3-(difluoromethyl)-5-fluoro-1-methyl-1H-pyrazole-4-carboxamide]
Efficacy [2]: 100%
inhibition at 50 µM (aflatoxines production; Aspergillus parasiticus, 168 h, read-out: % Inhibition of Aflatoxin at 50 μM): 100%
Efficacy (Sphaerotheca fuliginea): 98%
Efficacy (Septoria tritici): 100%
Efficacy (Alternaria solani): 100%
Efficacy [3]: 100%
Efficacy (Leptosphaeria nodorum): 90%
inhibition at 50 µM (Fusarium graminearum; Fusarium graminearum, 168 h, read-out: % Inhibition of fungal growth at 50 μM): 100%
Efficacy (Pyrenophora teres): 100%
chromatographic logP ([1]; logP): 3.23

Cn1nc(C(F)F)c(C(=O)N(C[Si](C)(C)c2ccccc2)C2CCCCC2)c1F [Example 229]
Efficacy (Alternaria solani): 90%
Efficacy (Puccinia triticina): 80%
Efficacy (Pyrenophora teres): 70%
logP [1]: 4.86

CN(C[Si](C)(C)c1ccccc1)C(=O)c1c(C(F)F)nn(C)c1F [Example 230]
Efficacy [2]: 100%
% Inhibition of Aflatoxin at 50 μM (aflatoxines production): 100%
Efficacy (Septoria tritici): 100%
Efficacy (Alternaria solani): 100%
Efficacy (Puccinia triticina): 95%
Efficacy [3]: 83%
Efficacy (Leptosphaeria nodorum): 80%
% Inhibition of fungal growth at 50 μM (Fusarium graminearum): 100%
Efficacy (Pyrenophora teres): 100%
logP [1]: 3.23

Cn1nc(C(F)F)c(C(=O)NC[Si](C)(C)c2ccccc2Cl)c1Cl [Example 232]
Efficacy (Puccinia triticina): 95%
logP [1]: 3.69

Cn1nc(C(F)F)c(C(=O)NC[Si](C)(C)c2ccccc2Cl)c1F [Example 233]
% Inhibition of Aflatoxin at 50 μM (aflatoxines production): 88%
Efficacy (Septoria tritici): 90%
Efficacy (Alternaria solani): 95%
Efficacy (Puccinia triticina): 95%
Efficacy (Leptosphaeria nodorum): 80%
% Inhibition of fungal growth at 50 μM (Fusarium graminearum): 76%
Efficacy (Pyrenophora teres): 100%
logP [1]: 3.48

Cn1nc(C(F)F)c(C(=O)NC[Si](C)(C)c2ccc(Cl)cc2Cl)c1Cl [Example 239]
Efficacy (Alternaria solani): 90%
Efficacy (Puccinia triticina): 70%
logP [1]: 4.25

Cn1nc(C(F)F)c(C(=O)NC[Si](C)(C)c2ccc(Cl)cc2Cl)c1F [Example 240]
% Inhibition of Aflatoxin at 50 μM (aflatoxines production): 100%
Efficacy (Alternaria solani): 100%
Efficacy (Puccinia triticina): 100%
Efficacy (Leptosphaeria nodorum): 95%
% Inhibition of fungal growth at 50 μM (Fusarium graminearum): 84%
Efficacy (Pyrenophora teres): 100% and 95%
logP [1]: 4.06

Cn1nc(C(F)F)c(C(=O)N(C[Si](C)(C)c2ccc3ccccc3c2)C2CC2)c1F [Example 245]
% Inhibition of Aflatoxin at 50 μM (aflatoxines production): 100%
Efficacy (Sphaerotheca fuliginea): 100%
Efficacy (Alternaria solani): 100%
Efficacy (Puccinia triticina): 95%
Efficacy (Leptosphaeria nodorum): 100%
% Inhibition of fungal growth at 50 μM (Fusarium graminearum): 100%
Efficacy (Pyrenophora teres): 100%
logP [1]: 4.36

CC(Cc1ncc(C(F)(F)F)cc1Cl)N(C(=O)c1cn(C)nc1C(F)F)C1CC1 (centres unmarked) [compound CMP4, N-{1-[3-chloro-5-(trifluoromethyl)pyridin-2-yl]propan-2-yl}-N-cyclopropyl-3-(difluoromethyl)-1-methyl-1H-pyrazole-4-carboxamide, reference compound]
Efficacy (Puccinia triticina): 11%
pest or weed control at 500 ppm (Botrytis cinerea): 0%

Cc1nn(C)c(F)c1C(=O)N(C(C)Cc1ncc(C(F)(F)F)cc1Cl)C1CC1 (centres unmarked) [compound CMP5, N-{1-[3-chloro-5-(trifluoromethyl)pyridin-2-yl]propan-2-yl}-N-cyclopropyl-5-fluoro-1,3-dimethyl-1H-pyrazole-4-carboxamide, reference compound]
Efficacy (Puccinia triticina): 11%
pest or weed control at 500 ppm (Botrytis cinerea): 0%
